Test results reported in ChEMBL document CHEMBL3991601, “The target landscape of clinical kinase drugs” (Science, 2017).
Activity calls are given as the source filed them. For most assays here, no stated cut-off is given here; in the data, actives have a measured Kd and inactives only a lower limit.

What was measured:
Insulin receptor = Insulin receptor (Homo sapiens, UniProt P06213)
[1] = molecular target: T1, Cytochrome c1, heme protein, mitochondrial (Homo sapiens, UniProt P08574)
T1 sequence (P08574 whole entry): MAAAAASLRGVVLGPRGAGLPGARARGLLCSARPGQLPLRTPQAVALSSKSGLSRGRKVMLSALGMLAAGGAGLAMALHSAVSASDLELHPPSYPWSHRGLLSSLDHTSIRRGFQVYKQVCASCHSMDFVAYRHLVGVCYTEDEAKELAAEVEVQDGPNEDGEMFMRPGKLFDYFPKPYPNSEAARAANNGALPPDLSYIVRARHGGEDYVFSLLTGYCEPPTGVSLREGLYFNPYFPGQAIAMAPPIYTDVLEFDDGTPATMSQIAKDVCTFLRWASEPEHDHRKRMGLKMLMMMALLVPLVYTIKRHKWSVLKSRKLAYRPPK

DNA topoisomerase 2-beta = DNA topoisomerase 2-beta (Homo sapiens, UniProt Q02880)
[2] = molecular target: T2, Serine/threonine-protein kinase Nek3 (Homo sapiens, UniProt P51956)
T2 sequence (P51956 whole entry): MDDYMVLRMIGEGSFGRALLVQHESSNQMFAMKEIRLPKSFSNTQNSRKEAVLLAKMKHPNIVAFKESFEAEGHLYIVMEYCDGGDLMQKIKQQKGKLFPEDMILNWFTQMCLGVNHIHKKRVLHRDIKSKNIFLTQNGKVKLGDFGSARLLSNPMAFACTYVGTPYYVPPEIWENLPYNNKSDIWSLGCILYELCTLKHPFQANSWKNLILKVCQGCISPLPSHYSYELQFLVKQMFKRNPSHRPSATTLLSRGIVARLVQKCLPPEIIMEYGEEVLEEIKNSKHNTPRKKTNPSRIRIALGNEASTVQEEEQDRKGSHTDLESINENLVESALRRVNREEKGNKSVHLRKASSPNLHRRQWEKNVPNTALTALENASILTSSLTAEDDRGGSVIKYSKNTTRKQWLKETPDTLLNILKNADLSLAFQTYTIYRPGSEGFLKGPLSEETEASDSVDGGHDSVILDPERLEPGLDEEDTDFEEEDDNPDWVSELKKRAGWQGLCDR

[3] = molecular target: Protein-tyrosine kinase 2-beta (Homo sapiens, UniProt Q14289)
Protein-tyrosine kinase 2-beta, sequence (Q14289 whole entry): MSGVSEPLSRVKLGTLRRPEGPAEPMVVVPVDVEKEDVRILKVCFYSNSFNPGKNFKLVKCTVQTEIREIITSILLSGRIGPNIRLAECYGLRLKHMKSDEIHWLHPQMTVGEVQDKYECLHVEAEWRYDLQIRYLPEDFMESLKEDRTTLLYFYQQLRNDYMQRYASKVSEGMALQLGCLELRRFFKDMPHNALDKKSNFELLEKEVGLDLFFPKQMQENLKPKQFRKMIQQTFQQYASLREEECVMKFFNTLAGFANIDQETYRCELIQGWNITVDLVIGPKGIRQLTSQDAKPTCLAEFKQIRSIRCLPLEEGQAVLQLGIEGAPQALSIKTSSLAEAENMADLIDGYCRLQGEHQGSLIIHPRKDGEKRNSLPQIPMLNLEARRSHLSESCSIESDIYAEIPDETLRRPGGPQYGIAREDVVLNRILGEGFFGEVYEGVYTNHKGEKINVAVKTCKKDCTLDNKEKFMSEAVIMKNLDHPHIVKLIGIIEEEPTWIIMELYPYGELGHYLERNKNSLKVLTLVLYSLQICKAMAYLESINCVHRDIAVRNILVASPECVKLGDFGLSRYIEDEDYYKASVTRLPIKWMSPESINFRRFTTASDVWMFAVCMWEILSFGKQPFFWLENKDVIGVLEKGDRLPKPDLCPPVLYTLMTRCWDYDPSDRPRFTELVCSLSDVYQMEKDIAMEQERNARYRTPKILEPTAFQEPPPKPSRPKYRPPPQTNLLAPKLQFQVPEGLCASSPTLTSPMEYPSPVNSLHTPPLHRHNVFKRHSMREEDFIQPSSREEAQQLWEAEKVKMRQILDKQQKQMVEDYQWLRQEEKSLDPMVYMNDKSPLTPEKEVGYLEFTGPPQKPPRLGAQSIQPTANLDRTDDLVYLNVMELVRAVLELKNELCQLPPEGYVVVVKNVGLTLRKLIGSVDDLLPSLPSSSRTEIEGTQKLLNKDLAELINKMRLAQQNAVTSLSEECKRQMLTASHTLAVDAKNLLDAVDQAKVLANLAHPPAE

[4] = molecular target: Receptor-interacting serine/threonine-protein kinase 3 (Homo sapiens, UniProt Q9Y572)
Receptor-interacting serine/threonine-protein kinase 3, sequence (Q9Y572 whole entry): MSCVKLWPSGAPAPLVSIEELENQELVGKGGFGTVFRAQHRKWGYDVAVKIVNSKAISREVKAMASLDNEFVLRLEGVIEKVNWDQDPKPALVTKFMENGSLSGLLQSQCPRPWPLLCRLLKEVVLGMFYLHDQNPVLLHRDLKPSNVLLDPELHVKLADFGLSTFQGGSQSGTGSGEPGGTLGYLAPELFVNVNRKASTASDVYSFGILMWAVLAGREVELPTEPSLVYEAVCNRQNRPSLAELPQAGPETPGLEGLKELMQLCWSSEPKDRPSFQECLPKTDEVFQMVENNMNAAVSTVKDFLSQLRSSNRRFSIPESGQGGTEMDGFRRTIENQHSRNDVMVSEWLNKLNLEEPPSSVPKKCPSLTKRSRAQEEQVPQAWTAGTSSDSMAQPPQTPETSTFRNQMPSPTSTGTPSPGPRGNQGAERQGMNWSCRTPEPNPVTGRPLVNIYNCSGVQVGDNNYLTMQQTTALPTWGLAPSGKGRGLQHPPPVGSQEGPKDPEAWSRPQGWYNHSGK

[5] = molecular target: cAMP-dependent protein kinase catalytic subunit alpha (Homo sapiens, UniProt P17612)
[6] = molecular target: Tyrosine-protein kinase HCK (Homo sapiens, UniProt P08631)
Tyrosine-protein kinase HCK, sequence (P08631 whole entry): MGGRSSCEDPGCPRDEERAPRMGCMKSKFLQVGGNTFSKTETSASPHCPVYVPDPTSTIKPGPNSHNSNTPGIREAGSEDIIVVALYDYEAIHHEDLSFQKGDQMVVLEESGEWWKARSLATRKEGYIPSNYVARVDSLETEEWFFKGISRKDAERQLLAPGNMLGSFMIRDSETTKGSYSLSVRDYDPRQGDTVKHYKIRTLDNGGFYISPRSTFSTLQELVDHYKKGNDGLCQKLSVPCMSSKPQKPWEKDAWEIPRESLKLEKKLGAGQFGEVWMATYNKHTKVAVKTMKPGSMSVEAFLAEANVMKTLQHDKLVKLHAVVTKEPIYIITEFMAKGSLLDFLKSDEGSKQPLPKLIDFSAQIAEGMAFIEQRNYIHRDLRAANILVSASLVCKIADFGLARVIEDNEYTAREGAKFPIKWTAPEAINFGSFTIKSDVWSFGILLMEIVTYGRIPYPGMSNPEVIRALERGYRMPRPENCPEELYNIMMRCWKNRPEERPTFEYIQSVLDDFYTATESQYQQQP

[7] = molecular target: Serine/threonine-protein kinase SIK3 (Homo sapiens, UniProt Q9Y2K2)
Serine/threonine-protein kinase SIK3, sequence (Q9Y2K2 whole entry): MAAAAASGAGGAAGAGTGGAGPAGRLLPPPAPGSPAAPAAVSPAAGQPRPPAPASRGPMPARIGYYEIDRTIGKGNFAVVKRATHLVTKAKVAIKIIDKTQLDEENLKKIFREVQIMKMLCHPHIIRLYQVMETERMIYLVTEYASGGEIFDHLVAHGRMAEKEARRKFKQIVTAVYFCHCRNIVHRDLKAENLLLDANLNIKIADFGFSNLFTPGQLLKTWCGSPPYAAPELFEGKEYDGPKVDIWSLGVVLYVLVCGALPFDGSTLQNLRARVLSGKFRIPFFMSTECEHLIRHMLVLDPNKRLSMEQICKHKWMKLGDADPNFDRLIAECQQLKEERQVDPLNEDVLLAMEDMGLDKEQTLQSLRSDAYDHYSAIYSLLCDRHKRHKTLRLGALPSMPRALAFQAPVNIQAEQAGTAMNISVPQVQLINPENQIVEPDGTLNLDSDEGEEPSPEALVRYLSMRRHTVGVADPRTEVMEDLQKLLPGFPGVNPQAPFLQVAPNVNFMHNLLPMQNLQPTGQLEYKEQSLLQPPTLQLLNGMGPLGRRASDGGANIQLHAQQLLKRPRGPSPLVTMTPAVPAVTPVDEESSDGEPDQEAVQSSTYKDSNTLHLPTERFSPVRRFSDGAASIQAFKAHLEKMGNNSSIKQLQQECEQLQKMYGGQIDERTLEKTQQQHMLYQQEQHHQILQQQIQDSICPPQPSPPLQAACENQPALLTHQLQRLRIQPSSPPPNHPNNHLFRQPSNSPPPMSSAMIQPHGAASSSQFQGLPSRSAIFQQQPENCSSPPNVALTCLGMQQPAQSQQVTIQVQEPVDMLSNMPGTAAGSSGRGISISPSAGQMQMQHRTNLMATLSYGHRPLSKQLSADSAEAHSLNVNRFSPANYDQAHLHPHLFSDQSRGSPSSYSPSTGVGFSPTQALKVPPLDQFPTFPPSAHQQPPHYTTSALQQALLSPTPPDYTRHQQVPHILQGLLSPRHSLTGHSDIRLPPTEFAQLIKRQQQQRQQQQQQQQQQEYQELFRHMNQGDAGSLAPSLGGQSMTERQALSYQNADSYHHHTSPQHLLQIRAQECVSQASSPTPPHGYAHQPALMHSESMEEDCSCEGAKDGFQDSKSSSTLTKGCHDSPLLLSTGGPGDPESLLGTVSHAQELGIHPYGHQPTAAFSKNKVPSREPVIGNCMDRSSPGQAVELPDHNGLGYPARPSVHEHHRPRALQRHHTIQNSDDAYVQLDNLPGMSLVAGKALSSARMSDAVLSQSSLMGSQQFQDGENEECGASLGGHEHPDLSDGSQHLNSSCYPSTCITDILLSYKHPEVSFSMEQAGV

[8] = molecular target: T3, Serine/threonine-protein kinase 4 (Homo sapiens, UniProt Q13043)
T3 sequence (Q13043 whole entry): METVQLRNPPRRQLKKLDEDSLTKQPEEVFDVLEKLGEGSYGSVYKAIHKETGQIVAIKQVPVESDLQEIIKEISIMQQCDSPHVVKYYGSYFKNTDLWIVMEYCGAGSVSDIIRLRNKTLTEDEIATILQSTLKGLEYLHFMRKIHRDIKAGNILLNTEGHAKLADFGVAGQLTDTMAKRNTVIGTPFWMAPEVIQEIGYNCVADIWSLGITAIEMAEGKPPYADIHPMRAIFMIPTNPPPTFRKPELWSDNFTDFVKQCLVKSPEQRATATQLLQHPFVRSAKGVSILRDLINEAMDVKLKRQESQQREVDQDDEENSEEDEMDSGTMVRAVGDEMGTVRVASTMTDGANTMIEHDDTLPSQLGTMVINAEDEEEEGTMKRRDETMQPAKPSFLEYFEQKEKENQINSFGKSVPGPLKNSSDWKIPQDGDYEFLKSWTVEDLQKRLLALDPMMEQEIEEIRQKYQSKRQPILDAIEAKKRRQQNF

[9] = molecular target: Cyclin-dependent kinase 3 (Homo sapiens, UniProt Q00526)
Cyclin-dependent kinase 3, sequence (Q00526 whole entry): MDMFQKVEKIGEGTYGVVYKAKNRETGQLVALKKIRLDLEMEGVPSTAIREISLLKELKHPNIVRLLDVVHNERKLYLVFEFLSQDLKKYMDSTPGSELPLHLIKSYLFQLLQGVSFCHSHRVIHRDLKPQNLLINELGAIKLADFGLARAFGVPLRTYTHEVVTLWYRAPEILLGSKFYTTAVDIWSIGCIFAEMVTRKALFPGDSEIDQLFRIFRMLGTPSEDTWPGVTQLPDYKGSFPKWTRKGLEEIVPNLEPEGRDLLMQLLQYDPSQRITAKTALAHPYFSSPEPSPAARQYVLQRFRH

[10] = molecular target: Ribosomal protein S6 kinase alpha-4 (Homo sapiens, UniProt O75676)
Ribosomal protein S6 kinase alpha-4, sequence (O75676 whole entry): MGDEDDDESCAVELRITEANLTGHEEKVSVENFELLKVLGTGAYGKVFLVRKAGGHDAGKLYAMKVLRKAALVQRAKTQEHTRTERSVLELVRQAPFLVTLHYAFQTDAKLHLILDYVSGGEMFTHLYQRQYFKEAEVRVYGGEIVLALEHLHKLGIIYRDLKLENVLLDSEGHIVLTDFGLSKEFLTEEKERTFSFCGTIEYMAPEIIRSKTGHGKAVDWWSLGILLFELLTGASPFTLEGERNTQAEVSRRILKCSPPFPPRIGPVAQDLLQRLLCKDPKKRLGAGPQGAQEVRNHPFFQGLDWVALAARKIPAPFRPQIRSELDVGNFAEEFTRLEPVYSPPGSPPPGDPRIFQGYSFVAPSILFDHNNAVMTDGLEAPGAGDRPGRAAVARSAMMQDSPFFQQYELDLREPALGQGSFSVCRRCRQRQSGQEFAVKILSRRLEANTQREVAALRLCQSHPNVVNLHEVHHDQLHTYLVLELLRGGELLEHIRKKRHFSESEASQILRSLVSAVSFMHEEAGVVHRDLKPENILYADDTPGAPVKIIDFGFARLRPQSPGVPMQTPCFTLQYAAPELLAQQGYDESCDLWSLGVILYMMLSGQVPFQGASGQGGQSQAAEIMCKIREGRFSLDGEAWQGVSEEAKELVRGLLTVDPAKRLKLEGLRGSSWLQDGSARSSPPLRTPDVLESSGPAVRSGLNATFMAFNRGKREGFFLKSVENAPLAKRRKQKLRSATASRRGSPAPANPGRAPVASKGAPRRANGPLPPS

[11] = molecular target: Cyclin-dependent kinase 1 (Homo sapiens, UniProt P06493)
Cyclin-dependent kinase 1, sequence (P06493 whole entry): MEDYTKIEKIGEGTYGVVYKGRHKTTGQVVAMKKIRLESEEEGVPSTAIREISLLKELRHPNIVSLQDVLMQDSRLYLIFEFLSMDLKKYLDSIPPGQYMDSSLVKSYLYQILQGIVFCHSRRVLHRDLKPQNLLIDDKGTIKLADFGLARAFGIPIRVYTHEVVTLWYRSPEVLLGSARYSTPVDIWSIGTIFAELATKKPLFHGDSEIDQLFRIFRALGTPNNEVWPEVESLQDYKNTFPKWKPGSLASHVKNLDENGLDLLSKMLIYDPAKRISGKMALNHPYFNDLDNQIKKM

[12] = molecular target: T4, Dual specificity mitogen-activated protein kinase kinase 3 (Homo sapiens, UniProt P46734)
T4 sequence (P46734 whole entry): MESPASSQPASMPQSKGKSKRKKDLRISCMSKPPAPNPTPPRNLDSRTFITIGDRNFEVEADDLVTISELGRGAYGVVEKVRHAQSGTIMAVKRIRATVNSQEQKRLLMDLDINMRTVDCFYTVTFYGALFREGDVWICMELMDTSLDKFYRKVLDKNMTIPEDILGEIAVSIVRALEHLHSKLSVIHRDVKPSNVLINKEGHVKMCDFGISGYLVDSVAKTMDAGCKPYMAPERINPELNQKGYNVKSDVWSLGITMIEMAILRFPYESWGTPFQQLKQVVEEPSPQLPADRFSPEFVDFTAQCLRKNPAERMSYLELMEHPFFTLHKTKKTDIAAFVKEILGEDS

Aurora kinase A = molecular target: T5, Aurora kinase A (Homo sapiens, UniProt O14965)
T5 sequence (O14965 whole entry): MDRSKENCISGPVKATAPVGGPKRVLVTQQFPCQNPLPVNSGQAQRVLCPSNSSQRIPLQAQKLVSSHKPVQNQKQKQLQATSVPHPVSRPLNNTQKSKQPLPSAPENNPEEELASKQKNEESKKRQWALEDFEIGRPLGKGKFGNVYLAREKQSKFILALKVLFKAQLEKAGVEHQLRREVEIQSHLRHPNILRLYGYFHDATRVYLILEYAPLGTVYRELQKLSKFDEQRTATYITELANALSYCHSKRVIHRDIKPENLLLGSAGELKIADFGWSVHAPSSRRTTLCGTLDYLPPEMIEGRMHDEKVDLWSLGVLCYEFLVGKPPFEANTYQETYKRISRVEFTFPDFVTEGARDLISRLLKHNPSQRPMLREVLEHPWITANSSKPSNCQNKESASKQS

[13] = molecular target: Serine/threonine-protein kinase MRCK beta (Homo sapiens, UniProt Q9Y5S2)

| SMILES | Kd (Insulin receptor) | Kd [1] | Kd (DNA topoisomerase 2-beta) | Kd [2] | Kd [3] | Kd [4] | Kd [5] | Kd [6] | Kd [7] | Kd [8] | Kd [9] | Kd [10] | Kd [11] | Kd [12] | Kd (Aurora kinase A) | Kd [13] |
| --- | --- | --- | --- | --- | --- | --- | --- | --- | --- | --- | --- | --- | --- | --- | --- | --- |
| CNC(=O)c1ccc(C)c(-n2c(C)cc(OCc3ccc(F)cc3F)c(Br)c2=O)c1 [PH-797804] | > 30 µM (inactive) | > 30 µM (inactive) | > 30 µM (inactive) | > 30 µM (inactive) | > 30 µM (inactive) | > 30 µM (inactive) | > 30 µM (inactive) | > 30 µM (inactive) | > 30 µM (inactive) | > 30 µM (inactive) | > 30 µM (inactive) | > 30 µM (inactive) | > 30 µM (inactive) | > 30 µM (inactive) | > 30 µM (inactive) | > 30 µM (inactive) |
| COC(=O)[C@@]1(O)C[C@H]2O[C@]1(C)n1c3ccccc3c3c4c(c5c6ccccc6n2c5c31)C(=O)NC4 [K-252A] | > 30 µM (inactive) | > 30 µM (inactive) | > 30 µM (inactive) | > 30 µM (inactive) | 1.36 µM (active) | > 30 µM (inactive) | > 30 µM (inactive) | > 30 µM (inactive) | 4.03 µM (active) | 0.029 µM (active) | 0.032 µM (active) | 0.432 µM (active) | > 30 µM (inactive) | > 30 µM (inactive) | 0.02 µM (active) | > 30 µM (inactive) |
| Cc1ccc(-n2nc(C(C)(C)C)cc2NC(=O)NCc2cc(F)ccc2Oc2ccc3c(cnn3CCO)c2)cc1 [PEXMETINIB] | > 30 µM (inactive) | > 30 µM (inactive) | > 30 µM (inactive) | > 30 µM (inactive) | 30.4 µM (active) | 0.662 µM (active) | > 30 µM (inactive) | > 30 µM (inactive) | > 30 µM (inactive) | > 30 µM (inactive) | > 30 µM (inactive) | > 30 µM (inactive) | > 30 µM (inactive) | > 30 µM (inactive) | > 30 µM (inactive) | > 30 µM (inactive) |

The remaining lines, values ahead:

| Kd (Insulin receptor) | Kd [1] | Kd (DNA topoisomerase 2-beta) | Kd [2] | Kd [3] | Kd [4] | Kd [5] | Kd [6] | Kd [7] | Kd [8] | Kd [9] | Kd [10] | Kd [11] | Kd [12] | Kd (Aurora kinase A) | Kd [13] | SMILES |
| --- | --- | --- | --- | --- | --- | --- | --- | --- | --- | --- | --- | --- | --- | --- | --- | --- |
| > 30 µM (inactive) | > 30 µM (inactive) | > 30 µM (inactive) | > 30 µM (inactive) | > 30 µM (inactive) | 0.506 µM (active) | > 30 µM (inactive) | > 30 µM (inactive) | > 30 µM (inactive) | > 30 µM (inactive) | > 30 µM (inactive) | > 30 µM (inactive) | > 30 µM (inactive) | > 30 µM (inactive) | > 30 µM (inactive) | > 30 µM (inactive) | Cc1ccc(NC(=O)c2ccc(CN3CC[C@H](N(C)C)C3)c(C(F)(F)F)c2)cc1Nc1nccc(-c2cncnc2)n1 [BAFETINIB] |
| > 30 µM (inactive) | > 30 µM (inactive) | > 30 µM (inactive) | > 30 µM (inactive) | > 30 µM (inactive) | > 30 µM (inactive) | > 30 µM (inactive) | > 30 µM (inactive) | > 30 µM (inactive) | > 30 µM (inactive) | > 30 µM (inactive) | > 30 µM (inactive) | > 30 µM (inactive) | > 30 µM (inactive) | > 30 µM (inactive) | > 30 µM (inactive) | COc1ccc(-c2ccc3c(N4CCOC[C@@H]4C)nc(N4CCOC[C@@H]4C)nc3n2)cc1CO [AZD-8055] |
